Measurements published in patent publication US20190211317A1, “PEPTIDES AND NANOPARTICLES FOR INTRACELLULAR DELIVERY OF GENOME-EDITING MOLECULES” (Aadigen, LLC, priority 2016, published 2019).
Where “and” joins values, the source holds several entries; their conditions need not be identical. Identical values can stand only once. Like-named read-outs stand apart in the source and are kept apart here.

Assays:
[1] = test system: EGFP reporter gene in EGFP-U2OS, EGFP-HEK, EGFP-JURKAT cells; test: EGFP reporter gene disruption from CPP delivery of CAS9:sgRNA (flow cytometry); format: cell-based, human; settings: for decrease in EGFP expression: CAS9:gRNA 50 nM, CPP:cargo 20:1;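 for all read-outs here: cells carrying one integrated EGFP reporter received peptide-complexed CAS9 preloaded 1:1 with EGFP sgRNA, cultured 72 h, then EGFP level read by flow cytometry, lipofectamine 2000 and RNAiMAX as positive controls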
Procedure: Efficacy of CPP-mediated delivery was quantified using a well-established CAS9-induced gene disruption method (Fu et al, 2013, supra), by targeting a specific site in the exogenous EGFP gene reporter in three human cell lines expressing EGFP (GFP-U2OS, EGFP-HEK, EGFP-JURKAT).
Stock solutions of amphipathic peptides were prepared at 1 mg/mL in distilled water and sonicated for 10 min. CAS9 protein was preloaded with purified EGFP sgRNA at a molar ratio of 1:1 and incubated for 10 min prior to forming complexes with the peptides. Preloaded CAS9/gRNA complexes (10 nM, 25 nM, and 50 nM) were mixed with CPPs at 5:1, 10:1 and 20:1 molar ratios of CPP to cargo and incubated for 30 min at 37° C. prior to cell transfection.
Cell line containing a single integrated EGFP reporter gene (GFP-U2OS, EGFP-HEK and EGFP-JURKAT) were cultured in Dulbecco's Modified Eagle's Medium (DMEM), supplemented with 2 mM glutamine, 1% antibiotics (streptomycin 10,000 μg/mL, penicillin, 10,000 IU/mL) and 10% (w/v) foetal calf serum (FCS) at 37° C. in a humidified atmosphere containing 5% CO2. A total of 150,000 cells seeded in a 35 mm dish the day prior to transfection were grown to 50-60% confluence and overlaid with 200 μl of preformed complexes, incubated for 3-5 min, then 400 μl of DMEM was added. After 30 min incubation at 37° C., 1 mL of fresh DMEM containing 16% FCS was added to reach a final FCS concentration of 10%, without removing the overlay of CPP/CAS9-gRNA complexes. Cells were returned to the incubator for 72 hours.
CAS9-induced double-strand break formation was analyzed using flow cytometry by monitoring level of EGFP expression. […] Both lipofectamine 2000 and RNAiMAX delivery methods were used as positive controls.

[2] = test system: endogenous EMX1 gene in U2OS, JURKAT and K562 cells; test: EMX1 gene editing from CPP delivery of CAS9/gRNA (T7E1 assay); format: cell-based, human
Procedure: RNAiMAX delivery was used as a positive control as it was previously reported to show better results than Lipofectamine 2000 (Zuris et al., 2015, supra). […] Cells were returned to the incubator for 72 hours.

[3] = test system: endogenous EMX1 and exogenous EGFP reporter genes in GFP-U2OS, EGFP-JURKAT cells; test: Delivery of multiple RGEN/gRNA complexes: EMX1 and EGFP editing; format: cell-based, human
Procedure: RNAiMAX delivery was used as positive control. Cells were treated as described previously and CAS9-induced NHEJ analyzed 72 hr after transfection. […] The deletion (indel) frequency in the EMX1 gene was quantified using the T7E1 assay and loss of EGFP expression was monitored by flow cytometry. Data for on-target mutations induced by RGEN/gRNA are reported as an average of 3 separate experiments.

[4] = test system: hPD1 gene in human T cells; test: Simultaneous delivery of CAR plasmid and CAS9/gRNA: hPD1 editing (T7E1); format: cell-based; settings: for mean indel frequency: two donors
Procedure: Cells were incubated for 5 min, then 300 μl of serum free RPMI-1640 medium was added. After 30 min, 1.2 mL of full medium was added and serum level was adjusted to 10%. As control, CAS9 loaded with gRNA targeting GFP was used. For comparison with electroporation methods, cells were transfected with the anti-CD-19 CAR plasmid (5 μg) and gRNA/CAS9 (5 μg/10 μg) using Nucleofector 2b (Lonza, Germany) with the Amaxa Human T cells Nucleofector Kit, VPA-1002 (Lonza, Germany).
On day 5, the level of transduced and untransduced cells was analyzed, and cells were transferred to fresh T cell expansion medium. The cultures were analyzed for viability and anti-CD19 CAR expression by flow cytometry. The expression of the anti-CD19 CAR in the T cells was evaluated by flow cytometry using a Protein L assay. […] 7-AAD (Sigma) was used to determine viability. CAS9-induced double-strand break followed by repair through NHEJ system was analyzed by either the T7E1 assay or using the Genome Cleavage Detection kit (GCD Thermo Fisher) and quantified using Fragment Analyzer System. The indel frequency in the target gene was quantified using the T7E1 assay. The cultures were expanded and analyzed for viability, anti-CD19 expression and PD I level every 10 days. T cell expansion medium contained AIM V medium, supplemented with 5% heat-inactivated human AB Serum, 1% Gluta-Max, and 300 IU/mL IL-2.

JURKAT and K562 cells = test: Toxicity of CPP/CAS9/gRNA complexes in T cell lines (MTT assay); format: cell-based, human; settings: up to 100 nM, 24 h
Procedure: A total of 30,000 JURKAT or K562 cells seeded in 24-well plates the day prior to transfection were incubated with increasing concentrations of CPP/CAS9/gRNA complexed at 20:1 molar ratio (CPP to CAS9/gRNA) ranging from 1 nM to 200 nM for 30 min prior to addition of medium to reach a final 10% concentration of FCS. Cytotoxic response was measured 24 hours later by colorimetric MTT assay (Sigma, Germany). For MTT assay, cell culture medium was removed and replaced with PBS containing 2.5 mg/ml of MTT for 4 hours. Results correspond to the average of 3 independent experiments.

[5] = test system: primary human fibroblasts and primary human hepatocytes; test: Toxicity of ADGN-100a/CAS9/gRNA in primary cells (MTT assay); format: cell-based; settings: both primary cell types
Procedure: Cytotoxic response was measured 24 hours later by colorimetric MTT assay (Sigma, Germany). For MTT assay, cell culture medium was removed and replaced with PBS containing 2.5 mg/ml of MTT for 4 hours.

[6] = test system: E-Catenin gene in mouse muscle myoblast cells (C2C12); test: ü-Catenin gene disruption in C2C12 myoblasts (PCR gel); format: cell-based; settings: undifferentiated and differentiated C2C12
Procedure: Cells were transfected with CAS9/gRNA (2.5 μM/5 μM) complexes associated with CPP (+) or not (−) at a molar ratio of 20:1 (peptide to complex) and compared to delivery by RNAiMAX for E-Catenin expression. ü-actin expression was included as a loading control.
[…] Delivery by RNAiMAX was included as a positive control.
CAS9-induced NHEJ was analyzed 72 hours after transfection by PCR (FIG. 26) and T7E1 assay (FIG. 27). The deletion (indel) frequencies in the HPRT gene were quantified using a T7E1 assay by quantifying the amount of uncut vs cut DNA using a Fragment Analyzer System. Data for on-target mutations induced by RGEN/gRNA are reported as an average of 3 separate experiments
The cell line was maintained in 5% CO2 at 37° C. and cell viability was assessed by the Trypan Blue exclusion test. To induce myogenic differentiation, at about 80% cell confluence the medium containing 10% fetal calf serum was substituted with medium containing 1% fetal calf serum. The cells were transfected at the undifferentiated stage or at day 7 after differentiation.

[7] = test system: U2OS, HEPG2, K562 cells and primary human fibroblasts; test: CAS9 protein expression after CPP delivery of CAS9 mRNA (ELISA); format: cell-based; settings: day 3
Procedure: CPP/CAS9 mRNA complexes were formed by mixing the CAS9 mRNA (0.5 μg) with CPP at a 20:1 molar ratio of CPP:CAS9 mRNA and incubating for 30 min at 37° C. prior to cell transfection. Cells were transfected according to optimized protocols for either adherent or suspension cell lines.
Human primary fibroblasts were freshly obtained and grown in flasks pre-coated with a gelatin-based coating solution and incubated in Culture Complete Growth Medium for 3 days before expansion and treatment. U2OS cells were cultured in Dulbecco's Modified Eagle's Medium (DMEM), supplemented with 2 mM glutamine, 1% antibiotics (streptomycin 10,000 μg/mL, penicillin, 10,000 IU/mL) and 10% (w/v) foetal calf serum (FCS), at 37° C. in a humidified atmosphere containing 5% CO2. 35 mm dishes seeded with 150,000 cells the day prior to transfection were grown to 50-60% confluence and set up to be at about 70% confluences at the time of transfection. Before transfection, cells were washed with DMEM (2×) followed by PBS (1×). Cells were then overlaid with 0.2 ml of complex solution (16 μl CPP/Cargo complex in water+184 μl OPTiMEM without antibiotics), mixed gently, and incubated for 10 min at 37° C. 0.8 mL of fresh OPTiMEM or DMEM was then added and cells were incubated for 20 min at 37° C. 2 mL of complete OPTiMEM (high glucose) or DMEM containing 11.4% FCS was then added in order to reach a final FCS concentration of 10%, without removing the overlay of CPP/Cargo complexes. Cells were returned to the incubator (37° C., 5% CO2) and assayed at 72 hours post transfection.
K562 and HEpG2 cells were set up to be at about 70% confluence at the time of transfection. The cells were maintained in high glucose DMEM media with 10% serum. Before transfection, cells were harvested by centrifugation, then washed with DMEM (2×) followed by PBS (1×). Cells were then resuspended in 0.2 ml of complex solution (16 μl CPP/Cargo complex in water+184 μl OPTiMEM without antibiotics), mixed gently, and incubated for 10 min at 37° C. 0.8 mL of fresh OPTiMEM was then added and cells were incubated for 20 min at 37° C. 2 mL of complete OPTiMEM (high glucose) containing 11.4% FCS was then added in order to reach a final FCS concentration of 10%, without removing the overlay of CPP/Cargo complexes. Cells were returned to the incubator (37° C., 5% CO2) and assayed at 72 hours post transfection.
RNAiMAX lipid-based delivery (Invitrogen Thermo Fisher France) was used as a control and transfections were performed following the manufacturer's instructions. CAS9 expression level was analyzed at multiple time points over a period of 10 days as determined by ELISA on protein extracts using antibodies against CRISPR/Cas9 obtained from Diagenode (Diagenode cat. No. C15200223) and ABCAM (clone 7A9-ab191468).

[8] = test system: endogenous EMX1 gene in U2OS, HEPG2, K562 cells and primary human fibroblasts; test: EMX1 editing from CPP delivery of CAS9 mRNA/gRNA (T7E1); format: cell-based
Procedure: CPP/CAS9 mRNA/gRNA complexes were formed by mixing the CAS9 mRNA (0.5 μg) and gRNA (5 μg) with CPP at a 20:1 molar ratio of CPP:cargo and incubating for 30 min at 37° C. prior to cell transfection. Suspension and adherent cells were transfected according to the protocols described in Example 13a. RNAiMAX-mediated delivery (Invitrogen Thermo Fisher France) was used as a control. EMX1 gene editing was analyzed at day 3 and day 6 by T7E1 assay and quantified using a Fragment Analyzer System.

[9] = test system: endogenous EMX1 gene in U2OS, HEPG2 cells and primary human fibroblasts; test: EMX1 editing from CPP delivery of CAS9-expressing plasmid and gRNA (T7E1); format: cell-based; settings: the three cell types
Procedure: EMX1-targeting gRNAs were prepared as described above. CPP/plasmid/gRNA complexes were prepared by mixing 0.5 μg of a CAS9-expressing plasmid (Addgene MLM3639-Plasmid #42252) and 5 μg gRNA with CPP at a 20:1 molar ratio of CPP to nucleic acid (plasmid+gRNA) and incubating for 30 min at 37° C. prior to cell transfection. Suspension and adherent cells were transfected according to the protocols described in Example 13a. Lipofectamine 2000- and RNAiMAX-mediated delivery methods (Invitrogen Thermo Fisher France) were used as controls. EMX1 gene editing was analyzed at day 3 and day 6 by T7E1 assay and quantified using a Fragment Analyzer System.

Swiss mice [10] = test: In vivo delivery of CAS9 mRNA by three CPPs: CAS9 expression in tissues (ELISA); design: species or system mouse
Procedure: Free CAS9 mRNA in physiological buffer was injected as a control.
At day 3, day 6, and day 10 following injection, animals were sacrificed and tissues including lung, liver, brain, kidney, heart, spleen, blood, pancreas, muscle, bone marrow, and intestine were collected. Tissues were homogenized and CAS9 protein levels in protein extracts were analyzed by ELISA using an antibody against CRISPR/Cas9 (SBI clone 7A9).

primary human T cells = test: CAS9 protein expression in primary human T cells after CAS9 mRNA or plasmid delivery (ELISA); format: cell-based; settings: day 3
Procedure: T cells were isolated from PBMCs using anti-CD3/anti-CD28 antibodies bound to paramagnetic beads (Dynabeads ClinExVivo CD3/CD28, Invitrogen) at a ratio of 3:1 (beads:cells). The cells and beads were co-incubated for 2 hours at room temperature and CD3^+ cell enrichment was performed using Dynal ClinExVIVO MPC magnet (Thermo Fisher). The anti-CD3/anti-CD28 paramagnetic beads were removed, washed and concentrated. Cells in the CD3^+ fraction were resuspended in activation media at a concentration of 1×10^6 cells/ml with AIM-V medium (Thermo Fishers) supplemented with 10% fetal calf serum, 300 IU/ml IL2 and 50 ng/ml OKT3 (MuromonAB-CD3) for two days.
CPP/CAS9 complexes were formed by mixing the CAS9 mRNA (0.5 μg) with CPP at a 20:1 molar ratio of CPP:CAS9 mRNA and incubating for 30 min at 37° C. prior to cell transfection. CPP/CAS9-expressing plasmid complexes were formed by mixing the CAS9-expressing plasmid (Addgene MLM3639-Plasmid #42252) (0.5 μg) with CPP at a 20:1 molar ratio of CPP:plasmid and incubating for 30 min at 37° C. prior to cell transfection.
Cells were transfected according to the protocol for suspension cells described in Example 13a. RNAiMAX and lipofectamine 2000 lipid-based delivery methods (Invitrogen Thermo Fisher France) were used as controls, and transfections were performed following the manufacturer's instructions. CAS9 protein expression level was analyzed at multiple time points over a period of 10 days as determine by ELISA on protein extracts using antibodies against CRISPR/Cas9 obtained from Diagenode (Diagenode cat. No. C15200223) and ABCAM (clone 7A9-ab191468).

[11] = test system: EGFP reporter gene in EGFP-U2OS cells
Procedure: ADGN-100 was evaluated for cellular delivery of a plasmid encoding CAS9 and gRNA targeting a specific site in the exogenous EGFP gene reporter in U2OS cells (EGFP-U2OS).
Stock solutions of amphipathic peptides were prepared at 1 mg/mL in distilled water and sonicated for 10 min.
EGFP-U2OS cells containing a single integrated EGFP reporter gene were cultured in Dulbecco's Modified Eagle's Medium (DMEM), supplemented with 2 mM glutamine, 1% antibiotics (streptomycin 10,000 μg/mL, penicillin, 10,000 IU/mL) and 10% (w/v) foetal calf serum (FCS), at 37° C. in a humidified atmosphere containing 5% CO2. A total of 150,000 cells seeded in a 35 mm dish the day prior to transfection were grown to 50-60% confluence and overlaid with 200 μl of preformed complexes, incubated for 3-5 min, then 400 μl of DMEM was added. After 30 min incubation at 37° C., 1 mL of fresh DMEM containing 16% FCS was added to reach a final FCS concentration of 10%, without removing the overlay of CPP/CAS9-gRNA complexes. Cells were returned to the incubator for 72 hours.
CAS9-induced double-strand break formation was analyzed using flow cytometry by monitoring the level of EGFP expression. […] Lipofectamine 2000 delivery was used as positive control.

U2OS cells = settings: CAS9 mRNA 0.2 μg and 0.5 μg; 20:1; 72 h
Procedure: U2OS cells were cultured in Dulbecco's Modified Eagle's Medium (DMEM), supplemented with 2 mM glutamine, 1% antibiotics (streptomycin 10,000 μg/mL, penicillin, 10,000 IU/mL) and 10% (w/v) foetal calf serum (FCS), at 37° C. in a humidified atmosphere containing 5% CO2. […] After 20 min incubation at 37° C., 1 mL of fresh DMEM containing 16% FCS was added in order to reach a final FCS concentration of 10%, without removing the overlay of complexes. Cells were returned to the incubator for 72 hours. CAS9 expression level was quantified by western blot on protein extract using antibody against CRISPR/Cas9 (Diagenode cat. No. C15200223).

[12] = test system: exogenous eGFP gene reporter in eGFP-U2OS cell line; settings: 72 h
Procedure: Both lipofectamine 2000 and RNAiMAX delivery methods were included as controls. eGFP-U2OS cells were cultured in Dulbecco's Modified Eagle's Medium (DMEM), supplemented with 2 mM glutamine, 1% antibiotics (streptomycin 10,000 μg/mL, penicillin, 10,000 IU/mL) and 10% (w/v) foetal calf serum (FCS), at 37° C. in a humidified atmosphere containing 5% CO2. A total of 150,000 cells seeded in a 35 mm dish the day prior to transfection were grown to 50-60% confluence and overlaid with 200 μl of preformed complexes, incubated for 5 min, then 400 μl of DMEM was added. After 20 min incubation at 37° C., 1 mL of fresh DMEM containing 16% FCS was added in order to reach a final FCS concentration of 10%, without removing the overlay of complexes. Cells were returned to the incubator for 72 hours.

Swiss mice [13] = settings: other tissues examined
Procedure: At 72 hours following injection, animals were sacrificed and tissues including lung, liver, brain, kidney, heart, spleen, blood, and pancreas were collected. Tissues were homogenized and CAS9 expression was analyzed by western blot on protein extract using antibody against CRISPR/Cas9 (Diagenode cat. No. C15200223) or by ELISA using Cas9 monoclonal antibody (SBI clone 7A9).

[14] = test system: Luciferase reporter gene in the liver; settings: free ADGN-100a peptide
Procedure: At 72 hours post injection, animals were sacrificed and the following tissues were collected: liver, lung, kidney, spleen, and blood. Luciferase was quantified by fluorescence in the liver. Tissues were homogenized and CAS9 expression was analyzed by ELISA using Cas9 monoclonal antibody (SBI clone 7A9).

## CC(C)C[C@H](NC(=O)[C@H](CCCNC(=N)N)NC(=O)[C@H](Cc1c[nH]c2ccccc12)NC(=O)[C@H](CCCNC(=N)N)NC(=O)[C@H](Cc1c[nH]c2ccccc12)NC(=O)CNC(=O)[C@H](C)NC(=O)[C@H](CO)NC(=O)[C@H](CCCNC(=N)N)NC(=O)[C@H](Cc1c[nH]c2ccccc12)NC(=O)[C@H](CCCCN)NC(=O)CCN)C(=O)N[C@@H](Cc1c[nH]c2ccccc12)C(=O)N[C@@H](CCCNC(=N)N)C(=O)N[C@H](C(=O)N[C@@H](CCCNC(=N)N)C(=O)N[C@@H](CO)C(=O)N[C@@H](Cc1c[nH]c2ccccc12)C(=O)N[C@@H](CO)C(=O)N[C@@H](CCCNC(=N)N)C(=O)O)C(C)C [ADGN-100a]
[1]; EGFP-JURKAT
  reduction of EGFP-positive cells: 81%
[1]; HEK, 1 nM CAS9:gRNA
  reduction of number of EGFP-expressing cells: 62%
[1]; HEK
  decrease in EGFP expression: 86%
[1]; JURKAT, 1 nM CAS9:gRNA
  reduction of EGFP-expressing cells / loss of EGFP expression: 51%
[1]; U2OS, 1 nM CAS9:gRNA
  reduction of number of EGFP-expressing cells: 57%
[1]; U2OS
  decrease in EGFP expression: 87%
[2]; JURICAT, CAS9/sgRNA 25 nM
  Mean indel Frequency ± S.E.M: 65% and 65 ± 5%
[2]; JURKAT, CAS9/sgRNA 50 nM
  Mean indel Frequency ± S.E.M: 68 ± 6%
[2]; K562, CAS9/sgRNA 25 nM
  Mean indel Frequency ± S.E.M: 71% and 71 ± 8%
[2]; K562, CAS9/sgRNA 50 nM
  Mean indel Frequency ± S.E.M: 74 ± 4%
[2]; U2OS, CAS9/sgRNA 25 nM, 20:1
  Mean indel Frequency ± S.E.M: 67% and 67 ± 5%
[2]; U2OS, CAS9/sgRNA 50 nM
  Mean indel Frequency ± S.E.M: 72 ± 8%
[3]; JURKAT, EGFP
  Mean indel Frequency ± S.E.M: 78 ± 4%
[3]; JURKAT, EMX1
  Mean indel Frequency ± S.E.M: 76 ± 7%
[3]; U2OS, EGFP, 25 nM each complex
  Mean indel Frequency ± S.E.M: 77 ± 6%
[3]; U2OS, EMX1
  Mean indel Frequency ± S.E.M: 72 ± 8%
[4]; Donor 1, CAS9/sgRNA 2.5 μg/5 μg
  Mean indel Frequency ± s.e.m: 44 ± 5%
[4]; Donor 1, CAS9/sgRNA 5 μg/10 μg
  Mean indel Frequency ± s.e.m: 50 ± 3%
[4]; Donor 2, CAS9/sgRNA 2.5 μg/5 μg
  Mean indel Frequency ± s.e.m: 42 ± 3%
[4]; Donor 2, CAS9/sgRNA 5 μg/10 μg
  Mean indel Frequency ± s.e.m: 51 ± 8%
[4]; 2.5 μg/5 μg CAS9/gRNA
  mean indel frequency: approximately 42%
[4]; 5 μg/10 μg CAS9/gRNA
  mean indel frequency: approximately 50%
JURKAT and K562 cells
  toxicity: no toxicity
[5]
  toxicity: less than 10%
[6]
  editing of ü-Catenin and HPRT genes: robust editing
[7]; U2OS, K562, HepG2, CAS9 mRNA 0.5 μg
  ELISA signal for CAS9 protein expression: about 25 times the background
[7]; primary human fibroblasts
  ELISA signal for CAS9 protein expression: about 20 times the background
[8]
  mean indel frequencies: about 60%
[9]
  mean indel frequencies: 45-50%
Swiss mice [10]; day 10, liver
  CAS9 expression: CAS9 expression was observed
Swiss mice [10]; liver, day 3 and day 6, CAS9 mRNA 5 μg i.v., 20:1
  ELISA signal for CAS9 protein expression: greater than 20 times that of background
Swiss mice [10]; other tissues examined
  CAS9 protein expression: Little to no increase
Primary human T cells; CAS9-expressing plasmid 0.5 μg
  ELISA signal for CAS9 protein expression: about 4 times the background
Primary human T cells; CAS9 mRNA 0.5 μg
  ELISA signal for CAS9 protein expression: about 15 times the background
[11]; molar ratio 10:1 of ADGN-100a to each nucleic acid
  decrease in EGFP expression: 23%
[11]; molar ratio 20:1
  decrease in EGFP expression: 38%
U2OS cells
  CAS9 protein expression: dose-dependent expression of CAS9 protein
[12]; CAS9 mRNA/gRNA (0.5 μg/5 μg)
  decrease in EGFP expression: 85%
[12]; CAS9 protein/gRNA (2.5 μM/5 μM)
  decrease in EGFP expression: 87%
Swiss mice [13]
  CAS9 protein expression: No significant increase
[14]
  change in luciferase expression: no change in luciferase expression
